Assay [1] concerns the target T1, Neutrophil elastase (Homo sapiens, UniProt P08246).
T1 sequence (P08246 whole entry): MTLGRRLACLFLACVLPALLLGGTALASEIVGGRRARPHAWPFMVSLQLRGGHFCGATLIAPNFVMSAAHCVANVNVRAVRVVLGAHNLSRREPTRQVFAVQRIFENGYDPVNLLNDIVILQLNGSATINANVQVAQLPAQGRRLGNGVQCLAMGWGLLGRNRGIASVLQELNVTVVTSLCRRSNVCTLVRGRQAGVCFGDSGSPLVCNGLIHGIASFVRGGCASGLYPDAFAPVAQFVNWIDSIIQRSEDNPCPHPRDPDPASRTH
In words: Inhibitory activity was evaluated against human leukocyte elastase.

For assay [2], the target named is T1, Neutrophil elastase. In words: Inhibitory activity was evaluated against human leukocyte elastase; Inactive.

IC50 data for 13 compounds are collected here from ChEMBL document CHEMBL1122919, “Substituted 2-pyrones, 2-pyridones, and other congeners of elasnin as potential agents for the treatment of chronic obstructive lung diseases” (J Med Chem, 1985).

As to `CCCCCCCCCCCc1cc(O)cc(=O)o1`, the IC50 against Neutrophil elastase [1] was 3150 µM. For `CCCc1cc(O)cc(=O)o1`, on Neutrophil elastase [2], the IC50 result is reported as “Not Active”. Same read-out and setting: for `CCCCCc1cc(O)cc(=O)o1` the value was “Not Active”; for `CCCCCCCc1cc(O)cc(O)n1`, “Not Active”.

On Neutrophil elastase [1], `CCCCCCCCCCCC(=O)c1c(O)cc(C)oc1=O` showed an IC50 of 26.8 µM. Turning to `CCCC(=O)c1c(O)cc(C)oc1=O`, the IC50 result against Neutrophil elastase [2] was “Not Active”. On the same count and under the same terms, for `CCCCCCCc1cc(O)cc(=O)o1` the value was “Not Active”. For `CCC(=O)c1c(O)cc(C)oc1=O`, the IC50 entry on Neutrophil elastase [2] is on record as “Not Active”. `CCCCCCC(CCCC)c1cc(O)cc(=O)o1` (stereo not drawn) gave an IC50 at Neutrophil elastase [1] of 1620 µM. As for `CCCCCCCCCCCc1cc(O)cc(=O)[nH]1`, the IC50 at Neutrophil elastase [1] worked out at 153 µM.

As to `CCCCCC(=O)c1c(O)cc(C)oc1=O`, on Neutrophil elastase [2], the IC50 entry was “Not Active”. In the case of `CCCCCCCCCCCCCCCC(=O)c1c(O)cc(C)oc1=O`, the midpoint of inhibition against Neutrophil elastase [1], the IC50, lay at 35.8 µM. Consider `CCCCc1cc(O)cc(=O)o1`, for which the concentration for half-maximal inhibition (IC50) result against Neutrophil elastase [2] is listed as “Not Active”.

Usually IC50 stands for the concentration that inhibits the measured activity by half.
